Results on 16 compounds are retold here after patent US20250276074A1, “BRM AND BRG1 TARGETING ANTIBODY-DRUG CONJUGATES AND METHODS OF USE THEREOF” (Prelude Therapeutics Incorporated, priority 2024, published 2025).

The target of series [1] is T1, SMARCA2 (Homo sapiens, UniProt P51531). The series is described as follows: SMARCA2 HiBiT degradation assay in HeLa cells. Format: cell-based. The settings on record: 18 hours. The protocol: (§1) HiBiT peptide knock-in of SMARCA2 in LgBiT expressing HEK293T cells was performed by CRISPR-mediated tagging system as described Promega. The homozygous HiBiT knock-in on c-terminus SMARCA2 was confirmed by sanger sequence. SMARCA2-HiBiT knock-in Hela monoclonal cell (CS302366) and SMARCA4-HiBiT knock-in Hela monoclonal cell (CS3023226) were purchased from Promega. The heterozygous HiBiT-knock-in was confirmed by sanger sequence in both SMARCA2-HiBiT and SMARCA4-HiBiT monoclonal cells.
T1 sequence (P51531 whole entry): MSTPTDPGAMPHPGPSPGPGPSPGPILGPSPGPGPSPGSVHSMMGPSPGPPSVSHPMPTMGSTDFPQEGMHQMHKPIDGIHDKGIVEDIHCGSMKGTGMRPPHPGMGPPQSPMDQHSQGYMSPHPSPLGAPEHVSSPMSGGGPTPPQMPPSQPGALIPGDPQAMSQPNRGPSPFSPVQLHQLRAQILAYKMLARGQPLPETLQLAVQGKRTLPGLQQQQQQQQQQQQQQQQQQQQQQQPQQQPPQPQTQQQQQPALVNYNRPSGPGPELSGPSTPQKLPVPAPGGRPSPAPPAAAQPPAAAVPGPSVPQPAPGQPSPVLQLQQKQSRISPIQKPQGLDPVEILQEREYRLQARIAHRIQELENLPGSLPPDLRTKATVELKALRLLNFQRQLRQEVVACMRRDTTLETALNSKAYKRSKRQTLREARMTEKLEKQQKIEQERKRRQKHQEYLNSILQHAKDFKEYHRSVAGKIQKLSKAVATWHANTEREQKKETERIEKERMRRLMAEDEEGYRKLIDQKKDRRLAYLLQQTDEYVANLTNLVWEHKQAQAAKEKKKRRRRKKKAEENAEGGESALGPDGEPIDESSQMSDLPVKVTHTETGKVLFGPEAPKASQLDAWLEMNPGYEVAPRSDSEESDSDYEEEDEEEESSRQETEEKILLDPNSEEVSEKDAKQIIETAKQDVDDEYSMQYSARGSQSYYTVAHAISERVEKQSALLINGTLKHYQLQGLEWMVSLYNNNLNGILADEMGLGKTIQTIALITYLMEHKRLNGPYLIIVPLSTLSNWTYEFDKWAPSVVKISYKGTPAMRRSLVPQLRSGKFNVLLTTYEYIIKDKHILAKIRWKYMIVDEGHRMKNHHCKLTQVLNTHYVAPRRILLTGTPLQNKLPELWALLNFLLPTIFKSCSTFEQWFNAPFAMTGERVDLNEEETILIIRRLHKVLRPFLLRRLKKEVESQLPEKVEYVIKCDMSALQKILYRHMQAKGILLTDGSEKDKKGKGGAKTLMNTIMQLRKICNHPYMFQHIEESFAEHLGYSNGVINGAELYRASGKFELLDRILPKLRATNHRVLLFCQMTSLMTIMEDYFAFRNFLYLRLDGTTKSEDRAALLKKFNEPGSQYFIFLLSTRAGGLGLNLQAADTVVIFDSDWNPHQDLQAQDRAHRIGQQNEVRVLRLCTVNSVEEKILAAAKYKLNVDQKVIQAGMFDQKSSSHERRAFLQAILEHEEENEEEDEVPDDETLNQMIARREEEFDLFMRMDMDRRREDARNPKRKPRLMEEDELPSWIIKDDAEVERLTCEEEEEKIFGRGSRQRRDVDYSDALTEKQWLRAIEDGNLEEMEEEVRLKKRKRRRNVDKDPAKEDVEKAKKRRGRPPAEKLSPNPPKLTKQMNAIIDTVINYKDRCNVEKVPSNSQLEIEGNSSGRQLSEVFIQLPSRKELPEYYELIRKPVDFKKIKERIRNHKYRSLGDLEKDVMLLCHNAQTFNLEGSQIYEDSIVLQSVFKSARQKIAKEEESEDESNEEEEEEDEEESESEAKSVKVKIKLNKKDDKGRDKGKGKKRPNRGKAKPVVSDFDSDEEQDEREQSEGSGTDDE
(§2) Dispense 10ul aliquot of prepared Hela-SMARCA2-HiBiT or Hela-SMARCA4-HiBiT cells (1:1 ratio of cells:Trypan Blue (#1450013, Bio-Rad)) onto cell counting slide (#145-0011, Bio-Rad) and obtain cell density and cell viability using cell counter (TC20, Bio-Rad). Remove appropriate volume of resuspended cells from culture flask to accommodate 2500 cells/well @20 μL/well. Transfer Hela-HiBiT cells to 50 mL conical (#430290, Corning). Spin down at 1000 rpm for 5 min using tabletop centrifuge (SPINCHRON 15, Beckman). Discard supernatant and resuspend cell pellet in modified EMEM (#30-2003, ATCC) cell culture media containing 10% FBS (F2422-500ML, Sigma), and 1× Penicillin/Streptomycin (200 g/L) (30-002-CI, Corning) to a cell density of 125,000 cells/mL. Dispense […] of resuspended Hela-HiBit cells per well in 384-well TC treated plate (#12-565-343, Thermo Scientific) using standard cassette (#50950372, Thermo Scientific) on Multidrop Combi (#5840310, Thermo Scientific) inside laminar flow cabinet.
(§3) The degrader compounds of Table 4 were dissolved in DMSO to make 10 mM stock and 3-fold series dilutions were further conducted keeping the highest concentration 10 μM. Dispense test compounds onto plates using digital liquid dispenser (D300E, Tecan). Incubate plates in humidified tissue culture incubator at 37° C. for 18 hours. Add […] of prepared Nano-Glo® HiBiT Lytic detection buffer (N3050, Promega) to each well of 384-well plate using small tube cassette (#24073295, Thermo Scientific) on Multidrop Combi, incubate at room temperature for 30-60 min. Read plates on microplate reader (Envision 2105, PerkinElmer) using 384 well Ultra-Sensitive luminescence mode. Raw data files and compound information reports are swept into centralized data lake and deconvoluted using automated scripts designed by TetraScience, Inc. Data analysis, curve-fitting and reporting done in Dotmatics Informatics Suite using Screening Ultra module.

A further series relates to PSMA negative PC3 tumors. Description: Tumor growth inhibition in PSMA negative PC3 tumors, weekly administration. Format: in vivo, mouse. As to conditions: FIGS. 3A-3B.
Series [2] is described as follows: Tolerability in the LNCaP CDX efficacy study. As to conditions: CB17 SCID mice with LNCaP tumors.
Procedure: In-life evaluation was conducted using 6-8-week-old male CB17 SCID mice that were subcutaneously inoculated with LNCaP tumor cells mixed 1:1 with Matrigel. Mice were castrated 3 days prior to randomization, which was done when tumors for efficacy evaluation would reach 100 mm^3-400 mm^3.
In series [3] the target is T1, SMARCA2. Description: Single dose pharmacodynamics, SMARCA2 in LNCaP tumors by western blot. The format is in vivo. Also noted: from tissue; host or cells: LNCaP xenograft tumours from CB17 SCID mice. As to conditions: mouse, LNCaP tumors in mice, tumors collected 1-5 days later, read-out: maximal degradation of SMARCA2. A general note: Immunoblotting shows a protein as a band on a membrane.
Procedure: (§4) In-life evaluation was conducted using 6-8-week-old male CB17 SCID mice that were subcutaneously inoculated with LNCaP tumor cells mixed 1:1 with Matrigel. Mice were castrated 3 days prior to randomization, which was done when tumors for efficacy evaluation would reach 100 mm^3-400 mm^3. […] Tumors were subsequently homogenized, and proteins were extracted before evaluating SMARCA2 and SMARCA4 expression by western blot.

Series [4] has as its target T2, SMARCA4 (Homo sapiens, UniProt P51532). The series is described as follows: Single dose pharmacodynamics, SMARCA4 in LNCaP tumors by western blot. The settings on record: mouse, LNCaP tumors in mice, tumors collected 1-5 days later, read-out: maximal degradation of SMARCA4. Also noted: from tissue; host or cells: LNCaP xenograft tumours from CB17 SCID mice. Format: in vivo.
Procedure: as §4

Series [5] concerns the target T2, SMARCA4. The series is described as follows: SMARCA4 HiBiT degradation assay in HeLa cells. Also on record: SMARCA4-HiBiT knock-in Hela monoclonal cell (CS3023226) were purchased from Promega; host or cells: HeLa SMARCA4-HiBiT knock-in monoclonal cells (heterozygous). The settings on record: 18 hours; for Dmax: HeLa. Format: cell-based. The protocol: as §1, §2, §3

Series [6] deals with PSMA+ prostate cancer CDX (LNCaP). Description: Anti-tumor efficacy in PSMA+ prostate cancer CDX (LNCaP). Format: in vivo. The settings on record: castrated male CB17 SCID mice, 10 mg/kg s.c. Q3D, day 21.
Procedure: as §4
Series [7] is described as follows: Body weight and survival of mice in the PC3 tumor study. The settings on record: weekly administration, FIGS. 3A-3B. Format: in vivo, mouse.
For series [8], the system named is SMARCA4 mutated cancer cells. The settings on record: Vangamudi et al. Cancer Res 2015; cited from earlier work.
[9] abbreviates: iv, single dose 20 mg/kg i.v. infusion.

T2 sequence (P51532 whole entry): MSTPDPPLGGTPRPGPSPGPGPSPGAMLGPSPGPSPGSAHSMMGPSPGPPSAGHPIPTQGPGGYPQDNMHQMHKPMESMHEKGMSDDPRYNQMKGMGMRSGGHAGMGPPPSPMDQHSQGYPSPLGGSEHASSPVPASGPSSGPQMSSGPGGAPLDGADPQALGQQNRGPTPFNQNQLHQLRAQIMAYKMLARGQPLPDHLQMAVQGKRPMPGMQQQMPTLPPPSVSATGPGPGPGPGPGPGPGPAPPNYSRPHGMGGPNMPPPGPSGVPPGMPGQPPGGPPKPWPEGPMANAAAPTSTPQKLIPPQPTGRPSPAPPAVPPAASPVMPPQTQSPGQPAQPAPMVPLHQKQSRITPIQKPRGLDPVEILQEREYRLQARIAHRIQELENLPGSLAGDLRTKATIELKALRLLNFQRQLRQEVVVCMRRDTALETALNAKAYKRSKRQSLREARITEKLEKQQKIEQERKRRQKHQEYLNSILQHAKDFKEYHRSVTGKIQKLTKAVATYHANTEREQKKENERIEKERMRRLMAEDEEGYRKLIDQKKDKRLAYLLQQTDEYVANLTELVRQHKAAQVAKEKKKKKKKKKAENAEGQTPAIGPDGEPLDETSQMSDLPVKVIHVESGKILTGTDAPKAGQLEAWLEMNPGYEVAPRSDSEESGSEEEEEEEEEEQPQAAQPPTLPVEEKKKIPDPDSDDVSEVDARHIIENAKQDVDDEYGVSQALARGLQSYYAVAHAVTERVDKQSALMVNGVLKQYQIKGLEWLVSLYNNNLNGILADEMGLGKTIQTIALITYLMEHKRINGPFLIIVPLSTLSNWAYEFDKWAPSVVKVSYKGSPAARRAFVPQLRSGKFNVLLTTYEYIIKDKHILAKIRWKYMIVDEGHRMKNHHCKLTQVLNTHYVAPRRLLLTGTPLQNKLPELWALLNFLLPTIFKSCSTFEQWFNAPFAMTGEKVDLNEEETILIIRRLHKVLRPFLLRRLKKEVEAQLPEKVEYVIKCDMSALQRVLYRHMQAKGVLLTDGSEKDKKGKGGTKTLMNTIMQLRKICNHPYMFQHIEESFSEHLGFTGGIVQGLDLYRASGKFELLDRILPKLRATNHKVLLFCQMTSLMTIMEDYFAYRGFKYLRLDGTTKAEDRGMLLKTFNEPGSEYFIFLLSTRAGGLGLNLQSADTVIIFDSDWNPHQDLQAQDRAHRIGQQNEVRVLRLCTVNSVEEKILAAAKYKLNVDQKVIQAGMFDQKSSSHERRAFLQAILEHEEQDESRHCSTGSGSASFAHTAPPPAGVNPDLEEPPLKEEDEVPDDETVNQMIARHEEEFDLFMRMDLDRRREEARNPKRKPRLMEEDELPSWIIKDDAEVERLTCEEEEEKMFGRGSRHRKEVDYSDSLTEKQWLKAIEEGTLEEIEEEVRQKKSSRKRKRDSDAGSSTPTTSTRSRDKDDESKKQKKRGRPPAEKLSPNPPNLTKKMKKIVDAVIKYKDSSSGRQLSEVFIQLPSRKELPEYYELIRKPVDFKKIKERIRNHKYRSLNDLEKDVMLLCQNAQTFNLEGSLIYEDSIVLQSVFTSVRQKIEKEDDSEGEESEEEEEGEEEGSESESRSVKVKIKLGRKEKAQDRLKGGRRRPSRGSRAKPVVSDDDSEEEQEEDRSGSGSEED

On SMARCA2 [1], `C[C@]12CNc3nnc(-c4ccccc4O)cc3N1C[C@H](Oc1ccc(CN3CCN(c4ccc5c(c4)C(=O)N([C@H]4CCC(=O)NC4=O)C5)CC3)cn1)C2` [Compound 1] had a DC50 of less than 0.1 nM and a Dmax of more than 90%. Moreover, the tumor growth inhibition result with PSMA negative PC3 tumors is given as “did not induce significant tumor growth inhibition”. Moreover, in [2] (20 mg/kg i.v. infusion QW), the body weight loss result is on record as “minimal” and the mouse deaths result is recorded as “no mouse deaths”. Moreover, the Dmax at 20 mg/kg on SMARCA2 [3] (setting [9]) worked out at 98%. Moreover, the Dmax at 20 mg/kg on SMARCA4 [4] (setting [9]) was determined as 83%. In addition, at SMARCA4 [5], the DC50 was in the range of 0.1 to 1 nM and the Dmax is more than 90%.
In the case of `C[C@]12CNc3nnc(-c4ccccc4O)cc3N1C[C@H](Oc1ncc(CN3CCN(c4ccc5c(c4)C(=O)N([C@H]4CCC(=O)NC4=O)C5)CC3)cc1F)C2` [Compound 2], at SMARCA2 [1], the DC50 was in the range of 0.1 to 1 nM and the Dmax is more than 90%. For the same compound, on SMARCA4 [5], the DC50 fell in the range of 0.1 to 1 nM and the Dmax is more than 90%.
Turning to `Cc1ncsc1-c1ccc([C@H](C)NC(=O)[C@@H]2C[C@@H](O)CN2C(=O)[C@@H](c2cc(OCCN3CCC(CN4CCN5c6cc(-c7ccccc7O)nnc6NC[C@H]5C4)CC3)no2)C(C)C)cc1` [Compound 2], in [6], the “tumor growth inhibition (TGI)” value is 93%. Further, in the series on PSMA negative PC3 tumors, the tumor growth inhibition result was “efficacious”. The “mouse body weight loss and death” value in [7] is “caused mouse body weight loss and death”. Also, the “mice died during the study” value in series [2] (10 mg/kg s.c. Q3D) turned out to be 83.3%. The Dmax at 10 mg/kg was 99% at SMARCA2 [3] (sc, single dose 10 mg/kg s.c.) and 86% on SMARCA4 [4] (sc, single dose 10 mg/kg s.c.).
At SMARCA2 [1], `Cc1cc(CN2CCN(c3ccc4c(c3)C(=O)N([C@H]3CCC(=O)NC3=O)C4)CC2)cnc1O[C@H]1CN2c3cc(-c4ccccc4O)nnc3NC[C@]2(C)C1` [Compound 3] showed a DC50 of 0.1 to 1 nM and a Dmax of more than 90%. For the same compound, at SMARCA4 [5], the DC50 was in the range of 0.1 to 1 nM and the “SMARCA4 Dmax” value is reported as “B (50%<Dmax≤90%)”.
Consider `Cc1cc(CN2CCN(c3ccc4c(c3)C(=O)N([C@H]3CCC(=O)NC3=O)C4)CC2)cnc1O[C@H]1CN2c3cc(-c4ccccc4O)nnc3NC[C@]2(C)C1` [Compound 4], for which, on SMARCA2 [1], the DC50 was less than 0.1 nM and the “SMARCA2 Dmax” value was “A (Dmax>90%)”. Also, at SMARCA4 [5], the DC50 lay in the range of 0.1 to 1 nM and the “SMARCA4 Dmax” value is “A (Dmax>90%)”.
At SMARCA2 [1], `Cc1cc(C(=O)N2CCN(c3ccc4c(c3)C(=O)N([C@H]3CCC(=O)NC3=O)C4)CC2)cnc1O[C@H]1CN2c3cc(-c4ccccc4O)nnc3NC[C@]2(C)C1` [Compound 5] yielded a DC50 of less than 0.1 nM and a Dmax of more than 90%. In addition, at SMARCA4 [5], the 50% degradation concentration (DC50) lay in the range of 0.1 to 1 nM and the Dmax lay within 50 to 90%.
At SMARCA2 [1], `CC[C@]12CNc3nnc(-c4ccccc4O)cc3N1C[C@H](Oc1ncc(CN3CCN(c4ccc5c(c4)C(=O)N([C@H]4CCC(=O)NC4=O)C5)CC3)cc1C)C2` [Compound 6] registered a 50% degradation concentration (DC50) of less than 0.1 nM and a Dmax of more than 90%. At SMARCA4 [5], this compound registered a DC50 of less than 0.1 nM and a Dmax of more than 90%.
As to `CC[C@]12CNc3nnc(-c4ccccc4O)cc3N1C[C@H](Oc1ncc(C(=O)N3CCN(c4ccc5c(c4)C(=O)N([C@H]4CCC(=O)NC4=O)C5)CC3)cc1C)C2` [Compound 7], on SMARCA2 [1], the DC50 is less than 0.1 nM and the Dmax is more than 90%. In addition, at SMARCA4 [5], the DC50 fell in the range of 0.1 to 1 nM and the Dmax fell in the range of 50 to 90%.
In the case of `CC[C@]12CNc3nnc(-c4ccccc4O)cc3N1C[C@H](Oc1ncc(CN3CCN(c4ccc5c(c4)C(=O)N([C@H]4CCC(=O)NC4=O)C5)CC3)nc1C)C2` [Compound 8], at SMARCA2 [1], the DC50 is less than 0.1 nM and the Dmax is more than 90%. For the same compound, at SMARCA4 [5], the DC50 was 0.1 to 1 nM and the Dmax was more than 90%.
Take `CC[C@]12CNc3nnc(-c4ccccc4O)cc3N1C[C@H](Oc1ccc(CN3CCN(c4ccc5c(c4)C(=O)N([C@H]4CCC(=O)NC4=O)C5)CC3)cn1)C2` [Compound 9]: at SMARCA2 [1], the DC50 was less than 0.1 nM and the Dmax was more than 90%. At SMARCA4 [5], this compound showed a DC50 of 0.1 to 1 nM and a Dmax of more than 90%.
On SMARCA2 [1], `CC[C@]12CNc3nnc(-c4ccccc4O)cc3N1C[C@H](Oc1ccc(CN3CCC(c4ccc5c(c4)C(=O)N([C@H]4CCC(=O)NC4=O)C5)CC3)cn1)C2` [Compound 10] registered a DC50 of 0.1 to 1 nM and a Dmax of more than 90%. In addition, at SMARCA4 [5], the DC50 was 0.1 to 1 nM and the Dmax was 50 to 90%.
Take `Cc1ncsc1-c1ccc([C@H](C)NC(=O)[C@@H]2C[C@@H](O)CN2C(=O)[C@@H](c2cc(OCCN3CCC(N4CCN5c6cc(-c7ccccc7O)nnc6N[C@@H](C)[C@@H]5C4)CC3)no2)C(C)C)cc1` [Compound 11]: the DC50 at SMARCA2 [1] was in the range of 0.1 to 1 nM; on SMARCA4 [5], 1 to 10 nM. For the same compound, the Dmax at SMARCA2 [1] and on SMARCA4 [5] was more than 90% in each case.
Regarding `Cc1ncsc1-c1ccc([C@H](C)NC(=O)[C@@H]2C[C@@H](O)CN2C(=O)[C@@H](c2cc(OCCN3CCC(N4CCN5c6cc(-c7ccccc7O)nnc6N[C@H](C)[C@@H]5C4)CC3)no2)C(C)C)cc1` [Compound 12], the DC50 at SMARCA2 [1] and at SMARCA4 [5] was 1 to 10 nM in each case. Also, the Dmax at SMARCA2 [1] and at SMARCA4 [5] was more than 90% in each case.
On SMARCA2 [1], `Cc1ncsc1-c1ccc([C@H](C)NC(=O)[C@@H]2C[C@@H](O)CN2C(=O)[C@@H](c2cc(OCCN3CCC(N4CCN5c6cc(-c7ccccc7O)nnc6N[C@H](C)[C@H]5C4)CC3)no2)C(C)C)cc1` [Compound 13] gave a DC50 of 0.1 to 1 nM and a Dmax of more than 90%. Also, at SMARCA4 [5], the DC50 is 1 to 10 nM and the Dmax is more than 90%.
On SMARCA2 [1], `Cc1ncsc1-c1ccc([C@H](C)NC(=O)[C@@H]2C[C@@H](O)CN2C(=O)[C@@H](c2cc(OCCN3CCC(N4CCN5c6cc(-c7ccccc7O)nnc6N[C@@H](C)[C@H]5C4)CC3)no2)C(C)C)cc1` [Compound 14] had a 50% degradation concentration (DC50) of 1 to 10 nM and a Dmax of 50 to 90%. On SMARCA4 [5], this compound came in with a DC50 of 1 to 10 nM and a Dmax of 50 to 90%.
As for `O=C(/C=C/N1C[C@H]2C[C@@H]1CN2c1ccccn1)c1ccccc1O` [PFI-3], the “effects on cell proliferation inhibition” value in series [8] was “none to minor effects”.

In general, DC50 refers to the concentration at which degradation of the target reaches its halfway point. Read a low DC50 as a more potent degrader.
